Results as given in patent US20040028609A1, “Two-dimensionally quantified image method for distinguishing and quantifying over-growing tissue or the like” (priority 2000, published 2004).
Where two headings read alike, the source gives them in different places.

Tests used:
[1] = tested on: jejunum, basal layer of the intestinal mucosa; assay: [2-^14C] thymidine injected into exposed jejunum, semi-microautoradiograph; format: in vivo, Wistar rat; conditions: 5 μCi injected into exposed jejunum, 5 minutes
Procedure: The specimen used was the jejunum from a healthy 7-week old Wistar rat, male. Under ethyl ether anesthesia, the abdomen was opened to expose the jejunum, which was marked with methylene blue. […] Frozen sections were prepared with a microtome, and a semi-microautoradiographs were obtained.

[2] = tested on: excised jejunum, basal layer of the intestinal tract mucosa; assay: [2-^14C] thymidine incorporation in excised, cultured jejunum (in vitro system); format: cell-based, Wistar rat; conditions: 5 μCi injected into excised jejunum, cultured 10 minutes at 37° C.
Procedure: Next, the jejunum of a healthy Wistar male rat at seven weeks of age was used. The part of the abdomen was opened under ethyl ether anesthesia, and the jejunum of about 2-4 cm in length was excised. […] Then, the specimen was immediately frozen in liquid nitrogen and sectioned using a microtome to obtain frozen sections. Semi-microautoradiographs were prepared from these sections.

[3] = BALB/c, mouse, in vivo
Procedure: The back of BALB/c nude mice was inoculated with a 10^7 Hu09 cells (human osteosarcoma) grown in culture. 3 weeks later, animals with granulation tissue with a collagen layer were submitted for the experiment. […] 50 μm thick whole body sections cut longitudinally were prepared using a Leica Macrocut. The sections were stored in a sealed container and lyophilized. The dried sections in contact with a Fuji imaging plate were exposed in a dark box, and the IP was then processed with the Fuji BAS2000 analyzer to generate a digital image (FIG. 1).
The specimen was then placed in contact with IP, and 16 hours later the data was converted into a computer image for analysis.

[4] = Fate of intravenously administered [2-^14C] thymidine in rats; format: in vivo; conditions: intravenous
Procedure: Extensive studies by the present inventors led to the discovery that when “thymidine” is intravenously administered to rats, the thymidine administered is utilized only in the S phase of the cell cycle, and more precisely, within 3 minutes after the administration of the thymidine. This observation is based on the findings obtained using a “thymidine” with the “2” carbon position within its structure labeled with ^14C and tracking the fate of the administered thymidine. It was discovered that thymidine not incorporated during the cell division is rapidly metabolized in the liver, leucocytes, and the like and mostly excreted out of the body as carbon dioxide gas. Based on these findings, the present inventors discovered that a thymidine with “2” carbon position labeled with ^14C is an extremely important marker for specifying the frequency of dividing cells in vivo and for localizing its site(s) within the body. It was also discovered that a (1,3-N) thymidine, obtained by attaching a fluorescent compound to the nitrogen atoms at 1,3-positions of the thymidine, can also be used as the labeled thymidine.

tumor (T) = assay: Effect of ^90Y radiation on mitosis, [2-^14C] thymidine incorporation as marker of DNA replication (macroautoradiography): tumor; format: in vivo, BALB/c mice; further: key: −: no effect; ±: Slight inhibition; +: Decrease in function; ++: Definite decrease in function; +++: No incorporation of ^14C marker in DNA replication
[5] = Procedure: After administration of the aforementioned ^90Y into the mouse tail vein the systemic distribution was studied by the following experiments. The animals used were those obtained from the source as used for the BALB/c (body weight 25 g) described in Examples 1 and 2 above. After administration of an aqueous 0.5 μCi (18.5 kBq) ^90YCl citrate solution per male mouse in the tail vein, analysis was conducted over time at 5 time points: at 10 minutes, 1, 6, 24, and 48 hours. The animals were sacrificed under an ether anesthesia, and the whole body autoradiographs were prepared using with the same procedure as that used in Example 1 and Example 2 (FIGS. 7, 8, 9, 10, 11).
bone marrow (B) = conditions: for effect of ^90Y radiation on [2-^14C] thymidine incorporation (suppression of mitosis), B: bone marrow
Procedure: (§1) ^90YCl at the three levels, 0.5 μCi (18.5 kBq), 2 μCi (74 kBq) or 10 μCi (370 kBq), was injected intravenously into the tail of male BALB/c mice in groups of 6 mice per group (a total of 18 mice). […] The animals were sacrificed one hour later under ether anesthesia, and the macroautoradiographs were prepared as described in Example 1. […] FIG. 12 is a microautoradiograph of the bone marrow, showing the bone marrow from a mouse sacrificed 1 hour after [2-^14C] was administered, which was 48 hours after the ^90Y administration.
(§2) On the sections were placed five sheets of 10 μm thick aluminum foil, and this was brought into contact with IP to generate only the ^90Y image. […] If the image of the two radiation nuclides is to be obtained simultaneously, one can place an industrial X-ray film in contact with said section, followed by five sheets of aluminum foil, and then the IP; these are then stored in a dark box. After about 7 days, the X-ray film is taken out and photographically processed by the usual method to produce the image, while the IP is processed by Fuji BAS2000 for computer processing of the images. This method provides ^14C image on the industrial X-ray film. This method also gives a ^90Y image on the IP.

[6] = tested on: digestive tract mucosa (m)
Procedure: as §1, §2

[7] = 0.5 μCi ^90Y i.v., 1 hr after ^90Y
[8] = 0.5 μCi ^90Y i.v., 6 hr after ^90Y
[9] = 0.5 μCi ^90Y i.v., 24 hr after ^90Y
[10] = 0.5 μCi ^90Y i.v., 48 hr after ^90Y
[11] = 0.5 μCi ^90Y i.v., 72 hr after ^90Y
[12] = 0.5 μCi ^90Y i.v., 168 hr after ^90Y
[13] = 2 μCi ^90Y i.v., 1 hr after ^90Y
[14] = 2 μCi ^90Y i.v., 6 hr after ^90Y
[15] = 2 μCi ^90Y i.v., 24 hr after ^90Y
[16] = 2 μCi ^90Y i.v., 48 hr after ^90Y
[17] = 2 μCi ^90Y i.v., 72 hr after ^90Y
[18] = 2 μCi ^90Y i.v., 168 hr after ^90Y
[19] = 10 μCi ^90Y i.v., 1 hr after ^90Y
[20] = 10 μCi ^90Y i.v., 6 hr after ^90Y
[21] = 10 μCi ^90Y i.v., 24 hr after ^90Y
[22] = 10 μCi ^90Y i.v., 48 hr after ^90Y
[23] = 10 μCi ^90Y i.v., 72 hr after ^90Y
[24] = 10 μCi ^90Y i.v., 168 hr after ^90Y

Which “incorporation in the basal layer of the intestinal mucosa (semi-microautoradiograph)” value [1] does the source give for Cc1cn([C@H]2C[C@H](O)[C@@H](CO)O2)c(=O)[nH]c1=O [[2-^14C] thymidine] here?
Its value is “darkened images were clearly recorded”.

And the “incorporation in the basal layer of the intestinal tract mucosa (semi-microautoradiograph)” value [2]?
The value was “substantially darkened images”.

And the “time to incorporation into DNA after injection” value [3]?
The value was “less than 3 minutes”.

What about the “time by which the ^14C component is completely excreted out of other areas, except the bone and bone marrow” value ([3]; iv) of the same molecule?
Its value is at most 1 h.

And the “time after administration within which thymidine is utilized (S phase)” value [4]?
The value was at most 3 min.

Which results are given for [Cl][90Y]([Cl])[Cl] [^90Y, ^90YCl3]?
effect of ^90Y radiation on [2-^14C] thymidine incorporation (suppression of mitosis), T (tumor (T); [7]): −; effect of ^90Y radiation on [2-^14C] thymidine incorporation (suppression of mitosis), T (tumor (T); [8]): −; effect of ^90Y radiation on [2-^14C] thymidine incorporation (suppression of mitosis), T (tumor (T); [9]): −; effect of ^90Y radiation on [2-^14C] thymidine incorporation (suppression of mitosis), T (tumor (T); [10]): +; effect of ^90Y radiation on [2-^14C] thymidine incorporation (suppression of mitosis), T (tumor (T); [11]): +; effect of ^90Y radiation on [2-^14C] thymidine incorporation (suppression of mitosis), T (tumor (T); [12]): ±; effect of ^90Y radiation on [2-^14C] thymidine incorporation (suppression of mitosis), T (tumor (T); [13]): −; effect of ^90Y radiation on [2-^14C] thymidine incorporation (suppression of mitosis), T (tumor (T); [14]): +; effect of ^90Y radiation on [2-^14C] thymidine incorporation (suppression of mitosis), T (tumor (T); [15]): ++; effect of ^90Y radiation on [2-^14C] thymidine incorporation (suppression of mitosis), T (tumor (T); [16]): ++; effect of ^90Y radiation on [2-^14C] thymidine incorporation (suppression of mitosis), T (tumor (T); [17]): ++; effect of ^90Y radiation on [2-^14C] thymidine incorporation (suppression of mitosis), T (tumor (T); [18]): +; effect of ^90Y radiation on [2-^14C] thymidine incorporation (suppression of mitosis), T (tumor (T); [19]): ±; effect of ^90Y radiation on [2-^14C] thymidine incorporation (suppression of mitosis), T (tumor (T); [20]): ++; effect of ^90Y radiation on [2-^14C] thymidine incorporation (suppression of mitosis), T (tumor (T); [21]): +++; effect of ^90Y radiation on [2-^14C] thymidine incorporation (suppression of mitosis), T (tumor (T); [22]): +++; effect of ^90Y radiation on [2-^14C] thymidine incorporation (suppression of mitosis), T (tumor (T); [23]): +++; effect of ^90Y radiation on [2-^14C] thymidine incorporation (suppression of mitosis), T (tumor (T); [24]): +++; accumulation in the skeletal bones, share of the total dose ([5]; 0.5 μCi ^90YCl citrate solution, tail vein, IP images at 10 minutes to 48 hours): ≥ 70%; ^90Y remaining in the liver, spleen, and kidney ([5]; 0.5 μCi, tail vein, 24 hours after administration): only a slight residue; localization in skin, digestive tract epithelium, and vascular endothelial cells ([5]; 0.5 μCi, tail vein, image analysis): did not localize; ^90Y image at the site of the osteosarcoma HU09 ([5]; whole body autoradiograph, compared with bones): blackened image completely equivalent to the extent seen in the bones; effect of ^90Y radiation on [2-^14C] thymidine incorporation (suppression of mitosis), B (bone marrow (B); [7]): −; effect of ^90Y radiation on [2-^14C] thymidine incorporation (suppression of mitosis), B (bone marrow (B); [8]): −; effect of ^90Y radiation on [2-^14C] thymidine incorporation (suppression of mitosis), B (bone marrow (B); [9]): −; effect of ^90Y radiation on [2-^14C] thymidine incorporation (suppression of mitosis), B (bone marrow (B); [10]): +; effect of ^90Y radiation on [2-^14C] thymidine incorporation (suppression of mitosis), B (bone marrow (B); [11]): +; effect of ^90Y radiation on [2-^14C] thymidine incorporation (suppression of mitosis), B (bone marrow (B); [12]): ±; effect of ^90Y radiation on [2-^14C] thymidine incorporation (suppression of mitosis), B (bone marrow (B); [13]): −; effect of ^90Y radiation on [2-^14C] thymidine incorporation (suppression of mitosis), B (bone marrow (B); [14]): +; effect of ^90Y radiation on [2-^14C] thymidine incorporation (suppression of mitosis), B (bone marrow (B); [15]): ++; effect of ^90Y radiation on [2-^14C] thymidine incorporation (suppression of mitosis), B (bone marrow (B); [16]): ++; effect of ^90Y radiation on [2-^14C] thymidine incorporation (suppression of mitosis), B (bone marrow (B); [17]): ++; effect of ^90Y radiation on [2-^14C] thymidine incorporation (suppression of mitosis), B (bone marrow (B); [18]): +; effect of ^90Y radiation on [2-^14C] thymidine incorporation (suppression of mitosis), B (bone marrow (B); [19]): ±; effect of ^90Y radiation on [2-^14C] thymidine incorporation (suppression of mitosis), B (bone marrow (B); [20]): ++; effect of ^90Y radiation on [2-^14C] thymidine incorporation (suppression of mitosis), B (bone marrow (B); [21]): +++; effect of ^90Y radiation on [2-^14C] thymidine incorporation (suppression of mitosis), B (bone marrow (B); [22]): +++; effect of ^90Y radiation on [2-^14C] thymidine incorporation (suppression of mitosis), B (bone marrow (B); [23]): +++; effect of ^90Y radiation on [2-^14C] thymidine incorporation (suppression of mitosis), B (bone marrow (B); [24]): +++; level that showed cytotoxic effects near the sites of ^90Y deposition (bone marrow (B); bone / bone marrow): about 5 μCi/25 g; activity of the lymphocytes in the bone marrow to degrade [2-^14C] thymidine (bone marrow (B); first group, 0.5 μCi administration): only a slight decrease; effect of ^90Y radiation on [2-^14C] thymidine incorporation (suppression of mitosis), m [6, 7]: −; effect of ^90Y radiation on [2-^14C] thymidine incorporation (suppression of mitosis), m [6, 8]: −; effect of ^90Y radiation on [2-^14C] thymidine incorporation (suppression of mitosis), m [6, 9]: −; effect of ^90Y radiation on [2-^14C] thymidine incorporation (suppression of mitosis), m [6, 10]: −; effect of ^90Y radiation on [2-^14C] thymidine incorporation (suppression of mitosis), m [6, 11]: −; effect of ^90Y radiation on [2-^14C] thymidine incorporation (suppression of mitosis), m [6, 12]: −; effect of ^90Y radiation on [2-^14C] thymidine incorporation (suppression of mitosis), m [6, 13]: −; effect of ^90Y radiation on [2-^14C] thymidine incorporation (suppression of mitosis), m [6, 14]: −; effect of ^90Y radiation on [2-^14C] thymidine incorporation (suppression of mitosis), m [6, 15]: −; effect of ^90Y radiation on [2-^14C] thymidine incorporation (suppression of mitosis), m [6, 16]: −; effect of ^90Y radiation on [2-^14C] thymidine incorporation (suppression of mitosis), m [6, 17]: −; effect of ^90Y radiation on [2-^14C] thymidine incorporation (suppression of mitosis), m [6, 18]: −; effect of ^90Y radiation on [2-^14C] thymidine incorporation (suppression of mitosis), m [6, 19]: −; effect of ^90Y radiation on [2-^14C] thymidine incorporation (suppression of mitosis), m [6, 20]: −; effect of ^90Y radiation on [2-^14C] thymidine incorporation (suppression of mitosis), m [6, 21]: −; effect of ^90Y radiation on [2-^14C] thymidine incorporation (suppression of mitosis), m [6, 22]: −; effect of ^90Y radiation on [2-^14C] thymidine incorporation (suppression of mitosis), m [6, 23]: −; effect of ^90Y radiation on [2-^14C] thymidine incorporation (suppression of mitosis), m [6, 24]: −
